Results taken from US11718620B2, “Method for treating a cancer mediated by abnormality of multi-kinases” (TransThera Sciences (Nanjing), Inc., priority 2016, dated 2023).

Tests used:
KDR(VEGFR2) [1] = target: T1, KDR(VEGFR2) (Homo sapiens, UniProt P35968); assay: KDR kinase activity test, [γ-33P]-ATP filter membrane; format: biochemical; settings: 40 minutes at room temperature, read-out: Kinase-inhibiting activity IC50 KDR (VEGFR2)
Method: (§1) Test samples: compounds 1 to 4 in the present invention (the sequence numbers and structures thereof are shown in Table 1), dilution concentration: 0.03 μM-3 μM, a total of 10 concentration gradients.
(§2) Test method: enzymatic activity tests of Aurora kinase (including Aurora A and Aurora B) and VEGFR2 (KDR) were performed using a multi-function microplate reader.
(3) Test for KDR Kinase Activity:
(§3) KDR kinase protein and the compounds were sequentially added to the following reaction system: 8 mM MOPS pH 7.0, 0.2 mM EDTA, 0.33 mg/mL myelin basic protein, 10 mM magnesium acetate and [γ-^33P]-ATP (radioactive activity was approximately 500 cpm/pmol). Then the above reaction system was added with ATP to start the reaction, and incubated at room temperature for 40 minutes. Then the reaction was terminated by adding a 3% phosphoric acid solution. 10 μL was taken out from the reaction system, and then added dropwise to a P30 filtermat filter membrane, washed three times in a 75 mM phosphoric acid solution for 5 minutes, and then washed once with methanol. After the filter was dried, count was performed by a liquid crystal scintillation counter.

Aurora A [2] = target: T2, Aurora A (Homo sapiens, UniProt O14965); assay: Aurora A kinase activity test, [γ-33P]-ATP filter membrane; format: biochemical; settings: 40 minutes at room temperature, read-out: Kinase-inhibiting activity IC50 Aurora A
T2 sequence (O14965 1-403): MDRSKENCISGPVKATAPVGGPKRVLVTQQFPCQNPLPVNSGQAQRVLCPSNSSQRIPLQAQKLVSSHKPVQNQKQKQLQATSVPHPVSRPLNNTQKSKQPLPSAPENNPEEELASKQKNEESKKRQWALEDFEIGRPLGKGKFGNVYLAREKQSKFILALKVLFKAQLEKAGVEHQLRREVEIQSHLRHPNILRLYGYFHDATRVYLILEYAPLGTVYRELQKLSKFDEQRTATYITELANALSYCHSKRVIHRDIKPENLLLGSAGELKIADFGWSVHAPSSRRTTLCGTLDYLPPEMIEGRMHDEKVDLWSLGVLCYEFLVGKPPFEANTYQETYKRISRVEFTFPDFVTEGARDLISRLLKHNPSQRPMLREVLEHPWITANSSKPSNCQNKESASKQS
Method: as §1, §2
(1) Test for Aurora a Kinase Activity:
as §3, with “Aurora A kinase protein” for “KDR kinase protein”, “mM EDTA, 200 μM LRRASLG (Kemptide), 10 mM” for “mM EDTA, 0.33 mg/mL myelin basic protein, 10 mM”, “times in 75 mM” for “times in a 75 mM”, “the filter membrane was dried,” for “the filter was dried,”

Aurora B [3] = target: T3, Aurora B (Homo sapiens, UniProt Q96GD4); assay: Aurora B kinase activity test, [γ-33P]-ATP filter membrane; format: biochemical; settings: 40 minutes at room temperature, read-out: Kinase-inhibiting activity IC50 Aurora B
Method: as §1, §2
(2) Test for Aurora B Kinase Activity:
as §3, with “Aurora B kinase protein” for “KDR kinase protein”, “mM EDTA, 30 μM […], 10 mM” for “mM EDTA, 0.33 mg/mL myelin basic protein, 10 mM”, “times in 75 mM” for “times in a 75 mM”

KDR(VEGFR2) [4] = target: T1, KDR(VEGFR2); assay: KDR enzymatic activity test, FAM-labeled peptide, Caliper; format: biochemical; settings: FAM-labeled peptide substrate, read-out: Kinase-inhibiting activity IC50 KDR(VEGFR2)
Method: (§4) Test samples: Compounds in the present invention (the sequence numbers and structures thereof are shown in Table 1), dilution concentration: 0.03 μM-3 μM, a total of 10 concentration gradients.
as §2
(§5) a) 96-well plates, 10 dose groups, 3-fold serial dilutions, each well was added with DMSO, maximal concentration of 500 μM (50-fold compound).
(§6) b) 384-well plates, diluted with 1× kinase buffer (50 mM HEPES, pH 7.5; 0.0015% Brij-35; 2 mM DTT), each well containing 5× compound dissolved in 5 μL of 10% DMSO. Each well of the negative control contains 5 μL of 1× kinase buffer containing 10% DMSO.
(§7) Aurora A, Aurora B and KDR were dissolved in 1× kinase buffer and prepared as a 2.5× enzyme solution. After the compound in various concentrations was reacted with 2.5× enzyme solution at room temperature for 10 min, the FAM-labeled peptide substrate and ATP were added to initiate reaction. After incubation for 40 minutes, 25 μL of terminal solution (100 mM HEPES, pH 7.5; 0.015% Brij-35; 0.2% Coating Reagent #3; 50 mM EDTA) was added to stop the reaction, and the final data were read by Caliper.

Aurora B [5] = target: T3, Aurora B; assay: Aurora B enzymatic activity test, FAM-labeled peptide, Caliper; format: biochemical; settings: FAM-labeled peptide substrate, read-out: Kinase-inhibiting activity IC50 Aurora B
Method: as §4, §2, §5, §6, §7

Aurora A [6] = target: T2, Aurora A; assay: Aurora A enzymatic activity test, FAM-labeled peptide, Caliper; format: biochemical; settings: FAM-labeled peptide substrate, read-out: Kinase-inhibiting activity IC50 Aurora A
Method: as §4, §2, §5, §6, §7

Hep3B liver cancer cells = assay: Cell proliferation, Cell Titer-Glo; format: cell-based; settings: Homo sapiens, 72 hours, read-out: Cellular inhibitory activity IC50 Hep3B
Method: (§8) Test method: The effect of compounds on cell proliferation of different cell lines was examined by Cell Titer-Glo method.
(§9) Each cell line was inoculated into a 96-well plate one day in advance, and after overnight incubation, drugs in different concentrations were added to a final concentration of 0-10000 nM, 3-5 folds dilution, for a total of 10 concentration points. After incubation for 72 hours, the mixture was added with Cell titer-Glo reagent equilibrated at room temperature, and shaken to incubation for 10 min, and then allowed to stand at room temperature for 2 min to stabilize the light signal. The multi-function microplate reader was used to read data from each well and analyze it.

Kasumi-1 Leukemic cells = assay: Cell proliferation, Cell Titer-Glo; format: cell-based; settings: Homo sapiens, 72 hours, read-out: Cellular inhibitory activity IC50 Kasumi-1
Method: as §8, §9

[7] = tested on: TOV-112D ovarian cancer cells; assay: Cell proliferation, Cell Titer-Glo; format: cell-based; settings: Homo sapiens, TOV112D, 72 hours, read-out: Cellular inhibitory activity IC50 TOV-112D
Method: as §8, §9

[8] = tested on: A2780 ovarian cancer cells; assay: Cell proliferation, Cell Titer-Glo; format: cell-based; settings: Homo sapiens, 72 hours, read-out: Cellular inhibitory activity IC50 A2780
Method: as §8, §9

[9] = tested on: OVCAR-8 ovarian cancer cells; assay: Cell proliferation, Cell Titer-Glo; format: cell-based; settings: Homo sapiens, 72 hours, read-out: Cellular inhibitory activity IC50 OVCAR-8
Method: as §8, §9

KG-1 Leukemic cells = assay: Cell proliferation, Cell Titer-Glo; format: cell-based; settings: 72 hours, read-out: Cellular inhibitory activity IC50 KG-1
Method: as §8, §9

[10] = tested on: Caov-3 ovarian cancer cells; assay: Cell proliferation, Cell Titer-Glo; format: cell-based; settings: Homo sapiens, 72 hours, read-out: Cellular inhibitory activity IC50 Caov-3
Method: as §8, §9

[11] = tested on: OVCAR-3 ovarian cancer cells; assay: Cell proliferation, Cell Titer-Glo; format: cell-based; settings: Homo sapiens, 72 hours, read-out: Cellular inhibitory activity IC50 OVCAR-3
Method: as §8, §9

A549 Lung cancer cells = assay: Cell proliferation, Cell Titer-Glo; format: cell-based; settings: Homo sapiens, 72 hours, read-out: Cellular inhibitory activity IC50 A549
Method: as §8, §9

[12] = tested on: HCC1954 breast cancer cells; assay: Cell proliferation, Cell Titer-Glo; format: cell-based; settings: Homo sapiens, 72 hours, read-out: Cellular inhibitory activity IC50 HCC1954
Method: as §8, §9

[13] = tested on: BT-549 breast cancer cells; assay: Cell proliferation, Cell Titer-Glo; format: cell-based; settings: Homo sapiens, 72 hours, read-out: Cellular inhibitory activity IC50 BT-549
Method: as §8, §9

[14] = tested on: D4475 breast cancer cells; assay: Cell proliferation, Cell Titer-Glo; format: cell-based; settings: 72 hours, read-out: Cellular inhibitory activity IC50 D4475
Method: as §8, §9

[15] = tested on: HCC38 breast cancer cells; assay: Cell proliferation, Cell Titer-Glo; format: cell-based; settings: Homo sapiens, 72 hours, read-out: Cellular inhibitory activity IC50 HCC38
Method: as §8, §9

[16] = tested on: HCC70 breast cancer cells; assay: Cell proliferation, Cell Titer-Glo; format: cell-based; settings: Homo sapiens, 72 hours, read-out: Cellular inhibitory activity IC50 HCC70
Method: as §8, §9

[17] = tested on: MDA-MB-468 breast cancer cells; assay: Cell proliferation, Cell Titer-Glo; format: cell-based; settings: Homo sapiens, 72 hours, read-out: Cellular inhibitory activity IC50 MDA-MB-468
Method: as §8, §9

T1 sequence (P35968 20-1356): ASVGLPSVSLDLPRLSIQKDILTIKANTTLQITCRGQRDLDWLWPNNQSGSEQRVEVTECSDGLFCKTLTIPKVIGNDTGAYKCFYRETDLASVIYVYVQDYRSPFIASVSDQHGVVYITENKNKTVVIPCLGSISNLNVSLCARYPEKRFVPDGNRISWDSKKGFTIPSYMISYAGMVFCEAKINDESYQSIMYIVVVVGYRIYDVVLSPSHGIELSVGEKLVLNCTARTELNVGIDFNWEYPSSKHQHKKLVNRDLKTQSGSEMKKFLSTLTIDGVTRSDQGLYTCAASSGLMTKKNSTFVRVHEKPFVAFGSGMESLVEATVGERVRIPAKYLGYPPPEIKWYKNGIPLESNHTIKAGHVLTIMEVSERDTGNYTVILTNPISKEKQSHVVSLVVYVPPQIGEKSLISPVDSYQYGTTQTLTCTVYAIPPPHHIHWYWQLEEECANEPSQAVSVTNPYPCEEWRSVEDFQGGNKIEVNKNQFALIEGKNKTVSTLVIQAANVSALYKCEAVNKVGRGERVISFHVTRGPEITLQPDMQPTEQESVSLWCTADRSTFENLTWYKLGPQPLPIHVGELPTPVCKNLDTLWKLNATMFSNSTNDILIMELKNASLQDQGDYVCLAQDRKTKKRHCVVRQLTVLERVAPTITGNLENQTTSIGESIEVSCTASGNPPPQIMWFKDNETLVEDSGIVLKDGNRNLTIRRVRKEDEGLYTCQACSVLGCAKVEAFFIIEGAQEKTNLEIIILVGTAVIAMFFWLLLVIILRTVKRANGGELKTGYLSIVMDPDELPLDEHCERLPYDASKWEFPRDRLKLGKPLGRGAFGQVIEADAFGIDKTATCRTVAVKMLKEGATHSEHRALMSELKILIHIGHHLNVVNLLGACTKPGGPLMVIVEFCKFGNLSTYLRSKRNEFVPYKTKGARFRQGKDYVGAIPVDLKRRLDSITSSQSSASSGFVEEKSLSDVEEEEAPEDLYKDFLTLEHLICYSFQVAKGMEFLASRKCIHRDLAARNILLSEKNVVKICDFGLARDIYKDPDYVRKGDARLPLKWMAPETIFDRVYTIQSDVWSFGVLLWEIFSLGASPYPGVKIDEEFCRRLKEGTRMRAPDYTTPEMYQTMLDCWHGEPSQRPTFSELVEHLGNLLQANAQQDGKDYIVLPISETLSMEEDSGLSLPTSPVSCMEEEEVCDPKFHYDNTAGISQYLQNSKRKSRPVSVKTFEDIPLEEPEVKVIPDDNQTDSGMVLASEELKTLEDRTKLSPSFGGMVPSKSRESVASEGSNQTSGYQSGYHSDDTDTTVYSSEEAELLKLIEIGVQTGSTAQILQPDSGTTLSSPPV
T3 sequence (Q96GD4 whole entry): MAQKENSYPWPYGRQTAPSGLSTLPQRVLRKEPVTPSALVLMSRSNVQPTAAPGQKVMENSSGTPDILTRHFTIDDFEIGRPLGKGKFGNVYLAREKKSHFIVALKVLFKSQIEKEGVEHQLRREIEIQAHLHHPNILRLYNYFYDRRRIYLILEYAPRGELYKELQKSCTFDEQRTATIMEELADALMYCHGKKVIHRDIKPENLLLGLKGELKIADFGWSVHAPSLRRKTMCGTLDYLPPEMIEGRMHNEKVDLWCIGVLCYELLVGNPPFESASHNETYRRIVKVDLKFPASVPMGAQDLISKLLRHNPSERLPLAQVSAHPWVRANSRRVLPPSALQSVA

What does the source list for `COc1cc2c(cn1)C(c1ccccc1Cl)=Nc1c(n[nH]c1C)N2` [Compound 3]?
IC50 (KDR(VEGFR2) [1]): 876 nM; IC50 (Aurora A [2]): 4 nM; IC50 (Aurora B [3]): 8 nM

With `Cc1[nH]nc2c1N=C(c1ccccc1Cl)c1cnc(OC3CCOC3)cc1N2` (stereo not shown) [Compound 4] as the molecule, how does the IC50 (KDR(VEGFR2) [1]) read?
Its IC50 is 1520 nM.

What about the IC50 (Aurora A [2]) of the same molecule?
The IC50 was 4 nM.

What about the IC50 (Aurora B [3]) of the same molecule?
Its IC50 is 3 nM.

How did the IC50 (KDR(VEGFR2) [4]) turn out when `Cc1[nH]nc2c1N=C(c1ccccc1Cl)c1cnc(N3CCN(C)CC3)cc1N2` [Compound 22, 5-(2-chlorophenyl)-3-methyl-8-(4-methylpiperazin-1-yl)-2,10-dihydropyrazolo[4,3-b]pyrido[4,3-e][1,4]diazepine] was run?
The IC50 was 0.91 nM.

And the IC50 (Aurora B [5])?
The IC50 was 7.1 nM.

And the IC50 (Aurora A [6])?
The IC50 was 1.2 nM.

What about the IC50 (Hep3B liver cancer cells) of the same molecule?
The IC50 was 67 nM.

What about the IC50 (Kasumi-1 Leukemic cells) of the same molecule?
The IC50 was 19 nM.

And the IC50 [7]?
The IC50 was 650 nM.

And the IC50 [8]?
Its IC50 is 34 nM.

And the IC50 [9]?
The IC50 was 433 nM.

What about the IC50 (KG-1 Leukemic cells) of the same molecule?
Its IC50 is 5 nM.

What about the IC50 [10] of the same molecule?
Its IC50 is 146 nM.

What about the IC50 [11] of the same molecule?
The IC50 was 752 nM.

What does the source list for `Cc1[nH]nc2c1N=C(c1ccccc1Cl)c1cnc(N3CCOCC3)cc1N2` [Compound 29, 4-(5-(2-chlorophenyl)-3-methyl-2,10-dihydropyrazolo[4,3-b]pyrido[4,3-e][1,4]diazepin-8-yl)morpholine]?
IC50 (KDR(VEGFR2) [4]): 1.2 nM; IC50 (Aurora B [5]): 5 nM; IC50 (Aurora A [6]): 0.49 nM; IC50 (Hep3B liver cancer cells): 50 nM; IC50 (Kasumi-1 Leukemic cells): 48 nM; IC50 [7]: 955 nM; IC50 [8]: 35 nM; IC50 [9]: 305 nM; IC50 (KG-1 Leukemic cells): 5 nM; IC50 [10]: 184 nM; IC50 (A549 Lung cancer cells): 322 nM; IC50 [12]: 396 nM; IC50 [13]: 170 nM; IC50 [14]: 113 nM; IC50 [11]: 307 nM

Which IC50 (KDR(VEGFR2) [4]) does the source give for `CCN1CCN(Cc2cc3c(cn2)C(c2ccccc2Cl)=Nc2c(n[nH]c2C)N3)CC1` [Compound 33] here?
The IC50 was 1.6 nM.

What about the IC50 (Aurora B [5]) of the same molecule?
Its IC50 is 5.8 nM.

What about the IC50 (Aurora A [6]) of the same molecule?
The IC50 was 4.8 nM.

What about the IC50 [15] of the same molecule?
Its IC50 is 700 nM.

And the IC50 [16]?
The IC50 was 866 nM.

What about the IC50 [12] of the same molecule?
Its IC50 is 538 nM.

And the IC50 [13]?
Its IC50 is 421 nM.

Which results are given for `Cc1[nH]nc2c1N=C(c1ccccc1Cl)c1cnc(N3CCS(=O)(=O)CC3)cc1N2` [Compound 34]?
IC50 (KDR(VEGFR2) [4]): 2.3 nM; IC50 (Aurora B [5]): 7.5 nM; IC50 (Aurora A [6]): 1.3 nM; IC50 (Kasumi-1 Leukemic cells): 81 nM; IC50 (KG-1 Leukemic cells): 45 nM

What does the source list for `Cc1[nH]nc2c1N=C(c1ccccc1Cl)c1cnc(CN3CCOCC3)cc1N2` [Compound 35]?
IC50 (KDR(VEGFR2) [4]): 8.6 nM; IC50 (Aurora B [5]): 15 nM; IC50 (Aurora A [6]): 4.8 nM; IC50 (Kasumi-1 Leukemic cells): 80 nM; IC50 [17]: 1030 nM; IC50 [9]: 620 nM; IC50 [10]: 266 nM; IC50 (A549 Lung cancer cells): 578 nM; IC50 [12]: 732 nM; IC50 [13]: 509 nM; IC50 [11]: 266 nM

Which results are given for `CCc1cc2c(cn1)C(c1ccccc1Cl)=Nc1c(n[nH]c1C)N2` [Control drug 1-2, reference compound]?
IC50 (KDR(VEGFR2) [4]): 3.2 nM; IC50 (Aurora B [5]): 4 nM; IC50 (Aurora A [6]): 1.6 nM; IC50 (Hep3B liver cancer cells): 244 nM; IC50 (Kasumi-1 Leukemic cells): 126 nM; IC50 [7]: 2510 nM; IC50 [8]: 650 nM; IC50 [17]: 1380 nM; IC50 [15]: 1100 nM; IC50 [9]: 613 nM; IC50 (KG-1 Leukemic cells): 452 nM; IC50 [10]: 365 nM; IC50 (A549 Lung cancer cells): 1380 nM; IC50 [16]: 1520 nM; IC50 [12]: 894 nM; IC50 [13]: 654 nM; IC50 [14]: 443 nM; IC50 [11]: 814 nM
